In patent US7786141B2 (Vertex Pharmaceuticals Incorporated, priority 2004, dated 2010):
Like-named read-outs stand apart in the source and are kept apart here.

How the values were obtained:
M1 muscarinic receptor = target: T1, M1 muscarinic receptor (Homo sapiens, UniProt P11229); test: Functional mobilization of intracellular calcium (FLIPR) in M1-CHO cells; assay type: cell-based; conditions: for EC50: CHO cells expressing M1, calcium mobilization
T1 construct: expressed in transfected cells; host or cells: CHO (M1-CHO)
T1 sequence (P11229 1-460): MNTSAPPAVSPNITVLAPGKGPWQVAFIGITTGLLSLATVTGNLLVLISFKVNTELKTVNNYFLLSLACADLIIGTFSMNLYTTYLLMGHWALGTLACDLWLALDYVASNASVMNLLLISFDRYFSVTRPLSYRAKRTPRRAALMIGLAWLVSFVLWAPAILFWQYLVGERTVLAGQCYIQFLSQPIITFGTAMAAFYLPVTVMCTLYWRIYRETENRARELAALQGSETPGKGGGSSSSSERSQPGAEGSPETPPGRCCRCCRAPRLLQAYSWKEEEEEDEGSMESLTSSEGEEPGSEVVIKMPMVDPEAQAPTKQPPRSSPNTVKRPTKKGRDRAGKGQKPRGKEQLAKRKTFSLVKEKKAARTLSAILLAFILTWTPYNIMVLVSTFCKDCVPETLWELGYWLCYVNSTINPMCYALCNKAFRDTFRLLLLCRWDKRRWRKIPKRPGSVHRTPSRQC
Outline: (§1)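 Two modes: direct compound addition for agonism, or 15 min compound pre-incubation (or co-application) before carbachol at EC80 for inhibition. Calcium signal from Fluo-3 AM or Calcium 3 dye in CHO cells, 1 mM probenecid, pH 7.4, read 60 sec at 488/540 nm; DMSO 0.5% final.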

M4 muscarinic receptor = target: T2, M4 muscarinic receptor (Homo sapiens, UniProt P08173); test: Functional mobilization of intracellular calcium (FLIPR) in M4-CHO cells; assay type: cell-based; conditions: for EC50: CHO cells expressing M4, calcium mobilization
T2 construct: expressed in transfected cells; host or cells: CHO (M4-CHO)
T2 sequence (P08173 1-479): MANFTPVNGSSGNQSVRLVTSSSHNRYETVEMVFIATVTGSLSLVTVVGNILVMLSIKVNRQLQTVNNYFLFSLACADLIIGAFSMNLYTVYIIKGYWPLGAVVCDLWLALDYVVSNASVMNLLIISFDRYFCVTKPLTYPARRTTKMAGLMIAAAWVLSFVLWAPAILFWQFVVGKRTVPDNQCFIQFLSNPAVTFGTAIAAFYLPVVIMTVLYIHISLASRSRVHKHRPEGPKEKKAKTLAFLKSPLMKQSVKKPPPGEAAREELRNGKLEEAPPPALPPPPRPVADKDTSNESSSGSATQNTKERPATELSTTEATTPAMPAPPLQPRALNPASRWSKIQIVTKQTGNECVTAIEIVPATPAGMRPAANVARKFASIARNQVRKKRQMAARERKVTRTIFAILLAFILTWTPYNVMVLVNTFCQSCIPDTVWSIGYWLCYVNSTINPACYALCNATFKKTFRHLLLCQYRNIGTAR
Outline: as §1

[1] = 100% efficacy is the maximum response obtained with the Carbachol control, Table 5
[2] = M1 receptor, calcium mobilization
[3] = M1 receptor, calcium mobilization, read-out: M1 Efficacy
[4] = M4 receptor, calcium mobilization
[5] = M4 receptor, calcium mobilization, read-out: M4 Efficacy
[6] = Table 4, 100% efficacy is the maximum response obtained with the Carbachol control
[7] = Table 4, modulating M1 receptor
[8] = Table 4, modulating M4 receptor
[9] = Table 4, M1 receptor, calcium mobilization (FLIPR)
[10] = Table 4, M4 receptor, calcium mobilization (FLIPR)

Structure (SMILES)	Emax (M1 muscarinic receptor; [6]) [%]	M1 Activity (M1 muscarinic receptor; [7])	Emax (M4 muscarinic receptor; [6]) [%]	M4 Activity (M4 muscarinic receptor; [8])	also measured
COc1ccc(F)cc1N1CCC(N2CCC3(CC2)CN(C(=O)N(C)C)c2ccc(F)cc23)CC1 [compound 1030]					Emax (M1 muscarinic receptor; [1]): 25 to 100%; EC50 (M1 muscarinic receptor; Table 5): 2 to 10 µM; Emax (M4 muscarinic receptor; [1]): 25 to 100%; EC50 (M4 muscarinic receptor; Table 5): 2 to 10 µM
CCOC(=O)N1CCC(CN2CCC3(CC2)CN(C(C)=O)c2ccc(OC(F)(F)F)cc23)CC1 [compound 21]					M1 Activity (M1 muscarinic receptor; [2]): xx (activity was measured to be between 0.1 μM and 1.0 μM); Emax (M1 muscarinic receptor; [3]): < 65%; M4 Activity (M4 muscarinic receptor; [4]): x (activity was measured to be greater than 1.0 μM); Emax (M4 muscarinic receptor; [5]): < 65%
CCOC(=O)N1CCC(N2CCC3(CC2)CN(C(C)=O)c2c(-c4ccc(C(C)=O)cc4)cccc23)CC1 [compound 491]	25 to 100	xx (activity was measured to be between 2.0 μM and 5.0 μM)	< 25	xx (activity was measured to be between 2.0 μM and 5.0 μM)	
CC(=O)N1CC2(CCN(C3CCC3)CC2)c2cc(F)ccc21 [compound 916]	< 25		< 25		M1 Activity (M1 muscarinic receptor; [9]): x (activity was measured to be greater than 5.0 μM); M4 Activity (M4 muscarinic receptor; [10]): x (activity was measured to be greater than 5.0 μM)
CCC(=O)CCN1CC2(CCN(C[C@@H]3C[C@H]4C=C[C@H]3C4)CC2)c2cc(F)ccc21 [compound 12]					M1 Activity (M1 muscarinic receptor; [2]): xxx (activity was measured to be less than 0.1 μM); Emax (M1 muscarinic receptor; [3]): < 65%; M4 Activity (M4 muscarinic receptor; [4]): xx (activity was measured to be between 0.1 μM and 1.0 μM); Emax (M4 muscarinic receptor; [5]): < 65%
CCOC(=O)N1CCC(N2CCC3(CC2)CN(C(=O)CC)c2ccc(F)cc23)CC1 [compound 317]					M1 Activity (M1 muscarinic receptor; [2]): x (activity was measured to be greater than 1.0 μM); Emax (M1 muscarinic receptor; [3]): < 65%; M4 Activity (M4 muscarinic receptor; [4]): x (activity was measured to be greater than 1.0 μM); Emax (M4 muscarinic receptor; [5]): < 65%
CCOC(=O)N1CCC(N2CCC3(CC2)CN(C(C)=O)c2ccc(-c4ccccc4C#N)cc23)CC1 [compound 277]					M1 Activity (M1 muscarinic receptor; [2]): xxx (activity was measured to be less than 0.1 μM); Emax (M1 muscarinic receptor; [3]): 65 to 85%; M4 Activity (M4 muscarinic receptor; [4]): x (activity was measured to be greater than 1.0 μM); Emax (M4 muscarinic receptor; [5]): < 65%
CCOC(=O)N1CCC(N2CCC3(CC2)CN(C(C)=O)c2c(-c4cccnc4)cccc23)CC1 [compound 728]	25 to 100	xx (activity was measured to be between 2.0 μM and 5.0 μM)	< 25	x (activity was measured to be greater than 5.0 μM)	
CCCC#CCOC(=O)N1CC[C@H](CN2CCC3(CC2)CN(C(=O)N(C)C)c2ccc(F)cc23)C1 [compound 981]	25 to 100		25 to 100		M1 Activity (M1 muscarinic receptor; [9]): xxx (activity was measured to be less than 2.0 μM); M4 Activity (M4 muscarinic receptor; [10]): xxx (activity was measured to be less than 2.0 μM)
COC1CCCCC1N1CCC2(CC1)CN(C(C)=O)c1ccc(F)cc12 (stereo not drawn) [compound 512]	< 25	x (activity was measured to be greater than 5.0 μM)	< 25	x (activity was measured to be greater than 5.0 μM)	
CN(C)C(=O)N1CC2(CCN(C3CCNCC3)CC2)c2cc(F)ccc21 [compound 685]	< 25	x (activity was measured to be greater than 5.0 μM)	25 to 100	xxx (activity was measured to be less than 2.0 μM)	
CCCOC(=O)N1C2CCC1CC(N1CCC3(CC1)CN(C(=O)O[C@@H]1CCOC1)c1ccc(F)cc13)C2 (stereo partly drawn) [compound 115]					M1 Activity (M1 muscarinic receptor; [2]): xxx (activity was measured to be less than 0.1 μM); Emax (M1 muscarinic receptor; [3]): 65 to 85%; M4 Activity (M4 muscarinic receptor; [4]): xx (activity was measured to be between 0.1 μM and 1.0 μM); Emax (M4 muscarinic receptor; [5]): < 65%
CN(C)C(=O)N1CC2(CCN(C[C@H]3CCN(c4nccs4)C3)CC2)c2cc(F)ccc21 [compound 852]	25 to 100		25 to 100		M1 Activity (M1 muscarinic receptor; [9]): xx (activity was measured to be between 2.0 μM and 5.0 μM); M4 Activity (M4 muscarinic receptor; [10]): xxx (activity was measured to be less than 2.0 μM)
CC(=O)CN1CC2(CCN(C3CCCCC3)CC2)c2cc(F)ccc21 [compound 796]	25 to 100	xxx (activity was measured to be less than 2.0 μM)	25 to 100	xxx (activity was measured to be less than 2.0 μM)	
C#CCCOC(=O)N1CC[C@H](CN2CCC3(CC2)CN(C(C)=O)c2ccccc23)C1 [compound 549]	< 25	x (activity was measured to be greater than 5.0 μM)	< 25	x (activity was measured to be greater than 5.0 μM)	
CCOC(=O)N1C2CCC1CC(N1CCC3(CC[C@H](NC(=O)N(C)C)c4ccccc43)CC1)C2 (stereo partly drawn) [compound 503]	25 to 100	xxx (activity was measured to be less than 2.0 μM)	25 to 100	xxx (activity was measured to be less than 2.0 μM)	
CC(=O)NC1CCC2(CCN(C3CCCCC3)CC2)c2ccccc21 (stereo not drawn) [compound 716]	25 to 100	xxx (activity was measured to be less than 2.0 μM)	25 to 100	xxx (activity was measured to be less than 2.0 μM)	
COc1cccc(-c2cncc(N3CCC(N4CCC5(CC4)CN(C(C)=O)c4ccccc45)CC3)n2)c1 [compound 837]	< 25		< 25		M1 Activity (M1 muscarinic receptor; [9]): x (activity was measured to be greater than 5.0 μM); M4 Activity (M4 muscarinic receptor; [10]): x (activity was measured to be greater than 5.0 μM)
COC(=O)N1CC2(CCN(C3CC4CCC(C3)N4C(=O)O[C@H]3CCOC3)CC2)c2cc(F)ccc21 (stereo partly drawn) [compound 96]					M1 Activity (M1 muscarinic receptor; [2]): xx (activity was measured to be between 0.1 μM and 1.0 μM); Emax (M1 muscarinic receptor; [3]): 65 to 85%; M4 Activity (M4 muscarinic receptor; [4]): x (activity was measured to be greater than 1.0 μM); Emax (M4 muscarinic receptor; [5]): < 65%
CC(=O)N[C@H]1CC2(CCN(CC3CCN(C(=O)OC4CCC4)CC3)CC2)c2ccccc21 [compound 818]	< 25		< 25		M1 Activity (M1 muscarinic receptor; [9]): x (activity was measured to be greater than 5.0 μM); M4 Activity (M4 muscarinic receptor; [10]): x (activity was measured to be greater than 5.0 μM)
O=C(N[C@H]1CC2(CCN([C@@H]3CC4CC[C@@H]3C4)CC2)c2ccccc21)C1CC1 [compound 650]	25 to 100	xxx (activity was measured to be less than 2.0 μM)	25 to 100	xxx (activity was measured to be less than 2.0 μM)	
CCCCC(=O)N1CCC(N2CCC3(CC2)CN(C(=O)N(C)C)c2ccc(F)cc23)CC1 [compound 590]	25 to 100	xx (activity was measured to be between 2.0 μM and 5.0 μM)	< 25	xx (activity was measured to be between 2.0 μM and 5.0 μM)	
CC(=O)N[C@H]1CC2(CCN(CC(=O)N3CC=CC3)CC2)c2ccccc21 [compound 533]	< 25	x (activity was measured to be greater than 5.0 μM)	< 25	x (activity was measured to be greater than 5.0 μM)	
CCOC(=O)N1CCC(N2CCC3(CC2)CNc2ccccc23)CC1 [compound 352]					M1 Activity (M1 muscarinic receptor; [2]): xxx (activity was measured to be less than 0.1 μM); Emax (M1 muscarinic receptor; [3]): > 85%; M4 Activity (M4 muscarinic receptor; [4]): x (activity was measured to be greater than 1.0 μM); Emax (M4 muscarinic receptor; [5]): > 85%
Clc1ccc2c(c1)C1(CCO2)CCN(C[C@@H]2C[C@H]3C=C[C@H]2C3)CC1 [compound 164]					M1 Activity (M1 muscarinic receptor; [2]): xx (activity was measured to be between 0.1 μM and 1.0 μM); Emax (M1 muscarinic receptor; [3]): > 85%; M4 Activity (M4 muscarinic receptor; [4]): x (activity was measured to be greater than 1.0 μM); Emax (M4 muscarinic receptor; [5]): > 85%
CN(C)C(=O)N1CC2(CCN(C3CCN(c4ccccc4F)CC3)CC2)c2cc(F)ccc21 [compound 1024]					Emax (M1 muscarinic receptor; [1]): 25 to 100%; EC50 (M1 muscarinic receptor; Table 5): 2 to 10 µM; Emax (M4 muscarinic receptor; [1]): < 25%; EC50 (M4 muscarinic receptor; Table 5): 2 to 10 µM
O=C(N[C@H]1CC2(CCN(C3CC4CC[C@@H]3C4)CC2)c2ccccc21)N1CCOCC1 (stereo partly drawn) [compound 979]	25 to 100		25 to 100		M1 Activity (M1 muscarinic receptor; [9]): x (activity was measured to be greater than 5.0 μM); M4 Activity (M4 muscarinic receptor; [10]): xxx (activity was measured to be less than 2.0 μM)
